Laboratory results taken from ChEMBL document CHEMBL4507319 (2021).

Columns and labels:
Details in all cases: Compound concentration 1000.0 nM
[1] = target: T1, Bone morphogenetic protein receptor type-2 (Homo sapiens) (UniProt Q13873)
T1 sequence (whole entry): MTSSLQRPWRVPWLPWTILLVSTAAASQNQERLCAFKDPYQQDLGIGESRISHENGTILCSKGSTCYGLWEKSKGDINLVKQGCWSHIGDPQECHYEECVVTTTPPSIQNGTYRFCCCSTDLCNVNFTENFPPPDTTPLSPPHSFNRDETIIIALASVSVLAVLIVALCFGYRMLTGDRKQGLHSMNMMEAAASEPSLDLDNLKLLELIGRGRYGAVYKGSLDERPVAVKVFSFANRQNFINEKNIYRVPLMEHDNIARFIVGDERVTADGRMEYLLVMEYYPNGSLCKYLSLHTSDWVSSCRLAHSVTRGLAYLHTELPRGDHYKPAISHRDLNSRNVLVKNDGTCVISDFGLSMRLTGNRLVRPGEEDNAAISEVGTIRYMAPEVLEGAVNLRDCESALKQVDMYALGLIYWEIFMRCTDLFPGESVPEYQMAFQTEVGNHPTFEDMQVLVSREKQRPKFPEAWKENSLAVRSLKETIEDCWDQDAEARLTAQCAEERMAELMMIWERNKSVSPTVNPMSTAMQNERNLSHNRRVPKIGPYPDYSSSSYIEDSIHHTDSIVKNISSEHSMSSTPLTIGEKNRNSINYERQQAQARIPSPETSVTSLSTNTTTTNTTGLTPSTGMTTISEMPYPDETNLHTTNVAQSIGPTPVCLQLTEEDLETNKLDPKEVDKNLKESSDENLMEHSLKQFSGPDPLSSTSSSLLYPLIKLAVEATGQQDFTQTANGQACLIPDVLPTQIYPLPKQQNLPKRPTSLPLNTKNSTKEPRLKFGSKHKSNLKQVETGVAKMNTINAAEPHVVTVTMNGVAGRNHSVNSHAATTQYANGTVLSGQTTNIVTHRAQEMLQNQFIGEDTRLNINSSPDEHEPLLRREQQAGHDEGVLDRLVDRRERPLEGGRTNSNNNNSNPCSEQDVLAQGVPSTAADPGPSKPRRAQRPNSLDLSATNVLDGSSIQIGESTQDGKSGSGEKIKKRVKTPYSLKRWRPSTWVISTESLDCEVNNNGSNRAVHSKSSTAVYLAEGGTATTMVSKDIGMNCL

[2] = target: Protein kinase C iota type (Homo sapiens) (UniProt P41743)
Sequence of Protein kinase C iota type (Homo sapiens) (P41743 whole entry): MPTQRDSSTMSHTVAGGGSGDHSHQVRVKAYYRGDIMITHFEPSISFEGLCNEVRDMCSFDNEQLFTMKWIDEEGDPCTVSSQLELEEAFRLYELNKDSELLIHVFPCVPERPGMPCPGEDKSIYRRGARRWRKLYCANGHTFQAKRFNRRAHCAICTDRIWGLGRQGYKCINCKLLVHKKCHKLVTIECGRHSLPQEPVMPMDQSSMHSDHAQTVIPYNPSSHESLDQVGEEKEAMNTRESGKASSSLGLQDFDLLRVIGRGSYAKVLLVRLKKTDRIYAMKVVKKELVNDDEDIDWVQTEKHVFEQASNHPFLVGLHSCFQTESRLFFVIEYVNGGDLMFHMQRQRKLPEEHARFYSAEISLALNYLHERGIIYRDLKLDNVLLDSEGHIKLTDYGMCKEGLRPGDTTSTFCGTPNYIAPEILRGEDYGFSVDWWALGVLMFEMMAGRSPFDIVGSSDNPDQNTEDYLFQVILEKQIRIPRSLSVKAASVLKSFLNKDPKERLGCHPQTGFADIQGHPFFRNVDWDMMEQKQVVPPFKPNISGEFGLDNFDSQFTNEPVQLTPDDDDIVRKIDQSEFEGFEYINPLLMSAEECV

[3] = target: Tyrosine-protein kinase Fes/Fps (Homo sapiens) (UniProt P07332)
Sequence of Tyrosine-protein kinase Fes/Fps (Homo sapiens) (P07332 whole entry): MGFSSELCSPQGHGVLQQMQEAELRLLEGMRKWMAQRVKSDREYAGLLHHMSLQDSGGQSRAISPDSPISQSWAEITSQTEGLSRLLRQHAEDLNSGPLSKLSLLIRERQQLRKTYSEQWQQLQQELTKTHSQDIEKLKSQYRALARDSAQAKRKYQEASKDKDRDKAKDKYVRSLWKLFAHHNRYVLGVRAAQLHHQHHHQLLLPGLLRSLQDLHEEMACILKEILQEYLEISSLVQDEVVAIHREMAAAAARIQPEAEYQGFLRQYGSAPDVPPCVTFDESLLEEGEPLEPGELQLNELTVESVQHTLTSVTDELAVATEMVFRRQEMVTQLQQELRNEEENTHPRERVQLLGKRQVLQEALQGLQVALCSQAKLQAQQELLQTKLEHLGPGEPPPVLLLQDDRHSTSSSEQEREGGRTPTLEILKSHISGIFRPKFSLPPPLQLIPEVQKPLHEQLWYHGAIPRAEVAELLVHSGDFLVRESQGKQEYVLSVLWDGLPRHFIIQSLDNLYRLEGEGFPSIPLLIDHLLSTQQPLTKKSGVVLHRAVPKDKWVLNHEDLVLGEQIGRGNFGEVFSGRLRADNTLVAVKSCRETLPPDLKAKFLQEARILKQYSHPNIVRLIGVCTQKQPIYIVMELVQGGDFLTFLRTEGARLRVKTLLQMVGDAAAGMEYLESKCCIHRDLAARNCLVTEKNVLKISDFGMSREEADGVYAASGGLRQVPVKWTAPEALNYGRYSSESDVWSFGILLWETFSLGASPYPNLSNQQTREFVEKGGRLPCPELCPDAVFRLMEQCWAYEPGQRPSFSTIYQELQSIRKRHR

[4] = target: T2, Serine/threonine-protein kinase Nek9 (Homo sapiens) (UniProt Q8TD19)
T2 sequence (whole entry): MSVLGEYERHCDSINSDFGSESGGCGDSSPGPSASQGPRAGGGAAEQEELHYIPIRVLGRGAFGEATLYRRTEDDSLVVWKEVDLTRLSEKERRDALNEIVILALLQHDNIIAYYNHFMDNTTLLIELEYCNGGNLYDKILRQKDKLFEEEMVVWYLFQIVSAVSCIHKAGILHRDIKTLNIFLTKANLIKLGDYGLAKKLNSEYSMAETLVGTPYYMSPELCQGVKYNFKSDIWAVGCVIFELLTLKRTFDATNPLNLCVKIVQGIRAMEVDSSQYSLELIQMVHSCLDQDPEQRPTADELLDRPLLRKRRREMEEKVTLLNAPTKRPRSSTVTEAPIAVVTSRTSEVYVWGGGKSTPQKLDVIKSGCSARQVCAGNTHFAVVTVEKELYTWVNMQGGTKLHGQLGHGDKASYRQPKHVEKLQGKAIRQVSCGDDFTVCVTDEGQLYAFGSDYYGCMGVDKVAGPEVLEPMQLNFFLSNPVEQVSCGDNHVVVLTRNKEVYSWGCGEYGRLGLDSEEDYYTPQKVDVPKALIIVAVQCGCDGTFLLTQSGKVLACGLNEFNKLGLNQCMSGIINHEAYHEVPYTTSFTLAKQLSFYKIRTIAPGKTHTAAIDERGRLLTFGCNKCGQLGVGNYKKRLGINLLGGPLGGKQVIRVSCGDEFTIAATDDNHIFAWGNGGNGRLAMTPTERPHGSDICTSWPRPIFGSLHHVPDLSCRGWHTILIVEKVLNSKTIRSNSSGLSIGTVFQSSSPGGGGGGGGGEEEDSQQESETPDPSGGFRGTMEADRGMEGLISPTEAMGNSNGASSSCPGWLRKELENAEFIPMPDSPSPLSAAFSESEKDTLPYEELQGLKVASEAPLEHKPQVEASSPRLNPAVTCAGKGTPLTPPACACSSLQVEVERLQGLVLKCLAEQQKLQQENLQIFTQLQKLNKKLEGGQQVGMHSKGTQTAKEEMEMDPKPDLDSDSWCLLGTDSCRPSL

[5] = target: T3, Ephrin type-B receptor 1 (Homo sapiens) (UniProt P54762)
T3 sequence (whole entry): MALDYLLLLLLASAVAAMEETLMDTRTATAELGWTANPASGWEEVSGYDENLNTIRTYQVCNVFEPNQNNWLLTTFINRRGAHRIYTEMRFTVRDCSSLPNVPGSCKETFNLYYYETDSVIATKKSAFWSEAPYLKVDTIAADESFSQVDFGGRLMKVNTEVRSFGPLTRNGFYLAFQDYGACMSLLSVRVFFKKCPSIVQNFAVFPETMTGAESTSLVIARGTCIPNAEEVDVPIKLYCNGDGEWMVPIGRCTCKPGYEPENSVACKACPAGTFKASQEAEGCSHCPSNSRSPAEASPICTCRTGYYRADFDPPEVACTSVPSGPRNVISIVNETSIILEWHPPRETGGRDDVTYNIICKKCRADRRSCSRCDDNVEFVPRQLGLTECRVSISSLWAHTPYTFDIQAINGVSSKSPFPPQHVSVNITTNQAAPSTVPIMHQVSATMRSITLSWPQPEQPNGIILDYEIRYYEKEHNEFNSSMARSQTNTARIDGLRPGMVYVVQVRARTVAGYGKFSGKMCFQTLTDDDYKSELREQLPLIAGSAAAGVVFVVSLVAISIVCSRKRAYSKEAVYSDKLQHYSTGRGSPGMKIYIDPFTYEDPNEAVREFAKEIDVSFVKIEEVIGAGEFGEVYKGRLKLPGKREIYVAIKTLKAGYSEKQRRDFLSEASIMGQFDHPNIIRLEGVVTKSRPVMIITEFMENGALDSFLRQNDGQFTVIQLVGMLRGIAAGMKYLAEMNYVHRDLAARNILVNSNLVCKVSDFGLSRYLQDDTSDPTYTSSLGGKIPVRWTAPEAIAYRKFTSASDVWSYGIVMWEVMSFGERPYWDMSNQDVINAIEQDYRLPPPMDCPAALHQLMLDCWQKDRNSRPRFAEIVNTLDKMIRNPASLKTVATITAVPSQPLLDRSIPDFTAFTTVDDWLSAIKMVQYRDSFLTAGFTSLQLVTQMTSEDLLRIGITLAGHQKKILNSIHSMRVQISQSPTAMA

Measured: residual activity

CCc1ccccc1C(=O)Nc1n[nH]c2c(C)c(F)c(C3C(C#N)=C(C)N(C)C(C)=C3C#N)cc12 [BAY-3827]
inactive: [1] 100% | [2] 82% | [3] 68% | [4] 93% | [5] 100%

CC1=C(C#N)C(c2ccc3c(c2)c(NC(=O)c2ccccc2C)nn3C)C(C#N)=C(C)N1 [BAY-974]
inactive: [1] 79% | [2] 66% | [3] 84% | [4] 100% | [5] 99%
